# In patent US20260001875A1, “AMINOPYRIMIDINYL DERIVATIVES FOR THE TREATMENT OF PARKINSON'S DISEASE” (UNIVERSITY OF DUNDEE, priority 2022, published 2026):
# Like-named read-outs stand apart in the source and are kept apart here.
# System: Rab10 pThr73
# Experiment: Rab10 Thr73 dephosphorylation (immunoblot) in LRRK2^G2019S MEFs
# Assay type: cell-based
# Details: Mus musculus, read-out: pRab10 inhibited in LRRK2^G2019S MEFs
Structure (SMILES),inhibition at 0.033 µM (33 nM/4 h treatment),inhibition at 0.033 µM (33 nM/24 h treatment)
"CNc1nc(Nc2ccc(C(=O)N3CCN(CCOCCOCCSC(C)(C)[C@H](NC(=O)C4(F)CC4)C(=O)N4C[C@H](O)C[C@H]4C(=O)NCc4ccc(-c5scnc5C)cc4)CC3)cc2OC)ncc1Cl [SD75, (2S,4R)-1-((R)-3-((2-(2-(2-(4-(4-((5-chloro-4-(methylamino)pyrimidin-2-yl)amino)-3-methoxybenzoyl)piperazin-1-yl)ethoxy)ethoxy)ethyl)thio)-2-(1-fluorocyclopropane-1-carboxamido)-3-methylbutanoyl)-4-hydroxy-N-(4-(4-methylthiazol-5-yl)benzyl)pyrrolidine-2-carboxamide]",0 to 60%,0 to 70%
CNc1nc(Nc2ccc(C(=O)N3CCN(C[C@H]4CC[C@@H](CSC(C)(C)[C@H](NC(=O)C5(F)CC5)C(=O)N5C[C@H](O)CC5C(=O)NCc5ccc(-c6scnc6C)cc5)CC4)CC3)cc2OC)ncc1Cl (stereo partly shown) [XL01134],0 to 70%,0 to 90%
